Bridge positions count the residues as written; N and C are the ends. Square brackets hold non-standard residues; d marks the D form. Peptide text beside a SMILES is read from it. αMeY = C[C@](N)(Cc1ccc(O)cc1)C(=O)O; Nle = CCCC[C@H](N)C(=O)O
What follows are compounds tested against T1, Growth hormone-releasing hormone receptor (Rattus norvegicus) (UniProt Q02644) (assay: Potency for growth hormone releasing hormone receptor (GHRFR) relative to human GHRH(1-40)OH- in the rat pituitary cell culture assay). Conditions: Pituitary gland cell.
T1 sequence (whole entry): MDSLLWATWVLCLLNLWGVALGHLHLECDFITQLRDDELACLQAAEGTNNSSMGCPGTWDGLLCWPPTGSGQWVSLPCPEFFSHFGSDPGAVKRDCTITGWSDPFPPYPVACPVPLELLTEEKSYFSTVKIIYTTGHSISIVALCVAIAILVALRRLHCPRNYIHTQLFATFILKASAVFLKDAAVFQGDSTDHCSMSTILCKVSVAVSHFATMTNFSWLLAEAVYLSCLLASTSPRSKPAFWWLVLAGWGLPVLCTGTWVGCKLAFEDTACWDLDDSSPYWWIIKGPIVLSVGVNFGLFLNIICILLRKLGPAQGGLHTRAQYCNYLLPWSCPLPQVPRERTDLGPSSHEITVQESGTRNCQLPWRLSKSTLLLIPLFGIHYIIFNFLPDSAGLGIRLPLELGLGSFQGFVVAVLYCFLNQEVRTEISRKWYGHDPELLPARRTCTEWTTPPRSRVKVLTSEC
Assay type: functional, cell-based

Row | Compound | Relative potency
1 | H-YADAIFTNAYRKVLGQLSARKLLQDIMSR-NH2 | 2.6
2 | CC[C@H](C)[C@H](NC(=O)[C@H](C)NC(=O)[C@H](CC(=O)O)NC(=O)[C@H](C)NC(=O)[C@@H](N)Cc1ccc(O)cc1)C(=O)N[C@@H](Cc1ccccc1)C(=O)N[C@H](C(=O)N[C@@H](CC(N)=O)C(=O)N[C@@H](CO)C(=O)N[C@@H](Cc1ccc(O)cc1)C(=O)N[C@@H](CCCN=C(N)N)C(=O)N[C@@H](CCCCN)C(=O)N[C@H](C(=O)N[C@H]1CCC(=O)NCCCC[C@@H](C(=O)N[C@@H](CO)C(=O)N[C@@H](C)C(=O)N[C@@H](CCCN=C(N)N)C(=O)N[C@@H](CCCCN)C(=O)N[C@@H](CC(C)C)C(=O)N[C@@H](CC(C)C)C(=O)N[C@@H](CCC(N)=O)C(=O)N[C@@H](CC(=O)O)C(=O)N[C@H](C(=O)N[C@@H](CCSC)C(=O)N[C@@H](CO)C(=O)N[C@@H](CCCN=C(N)N)C(N)=O)[C@@H](C)CC)NC(=O)[C@H](CCC(N)=O)NC(=O)CNC1=O)C(C)C)[C@@H](C)O (H-YADAIFTNSYRKVEGQKSARKLLQDIMSR-NH2; lactam 14-17) | 0.026
3 | H-YADAIFTNSYRKVLGALSARKLLQDIMSR-NH2 | 1.5
4 | H-YADAIFTNSYRKVLGQASARKLLQDIMSR-NH2 | 0.39
5 | CC[C@H](C)[C@H](NC(=O)[C@H](C)NC(=O)[C@H](CC(=O)O)NC(=O)[C@H](C)NC(=O)[C@@H](N)Cc1ccc(O)cc1)C(=O)N[C@@H](Cc1ccccc1)C(=O)N[C@H](C(=O)N[C@@H](CC(N)=O)C(=O)N[C@@H](CO)C(=O)N[C@@H](Cc1ccc(O)cc1)C(=O)N[C@@H](CCCN=C(N)N)C(=O)N[C@H]1CCC(=O)NCCCC[C@H](C(=O)N[C@H](CCC(N)=O)C(=O)N[C@H](CC(C)C)C(=O)N[C@H](CO)C(=O)N[C@H](C)C(=O)N[C@@H](CCCN=C(N)N)C(=O)N[C@@H](CCCCN)C(=O)N[C@@H](CC(C)C)C(=O)N[C@@H](CC(C)C)C(=O)N[C@@H](CCC(N)=O)C(=O)N[C@@H](CC(=O)O)C(=O)N[C@H](C(=O)N[C@@H](CCSC)C(=O)N[C@@H](CO)C(=O)N[C@@H](CCCN=C(N)N)C(N)=O)[C@@H](C)CC)NC(=O)[C@@H](CC(C)C)NC(=O)[C@H](C(C)C)NC1=O)[C@@H](C)O | 1.2
6 | H-YADAIFTNSYRKVLGQLSARKLLADIMSR-NH2 | 1.3
7 | CCCC[C@H]1NC(=O)[C@H]([C@@H](C)CC)NC(=O)[C@H](NC(=O)[C@H](Cc2c[nH]cn2)NC(=O)[C@H](CC(C)C)NC(=O)[C@H](CC(C)C)NC(=O)[C@H](CCCCN)NC(=O)[C@H](CCCN=C(N)N)NC(=O)[C@H](Cc2ccccc2)NC(=O)[C@@H](NC(=O)[C@H](CC(C)C)NC(=O)[C@H](CCC(N)=O)NC(=O)[C@H](C)NC(=O)[C@H](CC(C)C)NC(=O)[C@@H](NC(=O)[C@H](CCCN=C(N)N)NC(=O)[C@H](CCCN=C(N)N)NC(=O)[C@H](Cc2ccc(O)cc2)NC(=O)[C@H](CO)NC(=O)[C@H](CO)NC(=O)[C@@H](NC(=O)[C@H](Cc2ccccc2)NC(=O)[C@@H](NC(=O)[C@H](C)NC(=O)[C@H](CC(=O)O)NC(=O)[C@H](C)NC(=O)[C@@](C)(N)Cc2c[nH]cn2)[C@@H](C)CC)[C@@H](C)O)[C@@H](C)CC)[C@@H](C)CC)CSSC[C@H](C(N)=O)NC(=O)[C@H](CC(N)=O)NC1=O | 1.5
8 | H-YADAIFTNSYAKVLGQLSARKLLQDIMSR-NH2 | 0.01
9 | H-YADAIFTNSYRKVLGQLSARKLAQDIMSR-NH2 | 0.07
10 | H-YADAIFTNSYRKALGQLSARKLLQDIMSR-NH2 | 0.06
11 | CCCC[C@H]1NC(=O)[C@H]([C@@H](C)CC)NC(=O)[C@H](NC(=O)[C@H](CCC(N)=O)NC(=O)[C@H](CC(C)C)NC(=O)[C@H](CC(C)C)NC(=O)[C@H](CCCCN)NC(=O)[C@H](CCCN=C(N)N)NC(=O)[C@H](C)NC(=O)[C@H](CO)NC(=O)[C@H](CC(C)C)NC(=O)[C@H](CCC(N)=O)NC(=O)[C@H](C)NC(=O)[C@H](CC(C)C)NC(=O)[C@@H](NC(=O)[C@H](CCCCN)NC(=O)[C@H](CCCN=C(N)N)NC(=O)[C@H](Cc2ccc(O)cc2)NC(=O)[C@H](CO)NC(=O)[C@H](CC(N)=O)NC(=O)[C@@H](NC(=O)[C@H](Cc2ccccc2)NC(=O)[C@@H](NC(=O)[C@H](C)NC(=O)[C@H](CC(=O)O)NC(=O)[C@H](C)NC(=O)[C@@](C)(N)Cc2ccc(O)cc2)[C@@H](C)CC)[C@@H](C)O)C(C)C)CCC(=O)NCC[C@H](C(N)=O)NC(=O)[C@H](CO)NC1=O | 10.7
12 | H-AADAIFTNSYRKVLGQLSARKLLQDIMSR-NH2 | 0.01
13 | CC[C@H](C)[C@H](NC(=O)[C@H](C)NC(=O)[C@H](CC(=O)O)NC(=O)[C@H](C)NC(=O)[C@@H](N)Cc1ccc(O)cc1)C(=O)N[C@@H](Cc1ccccc1)C(=O)N[C@H](C(=O)N[C@@H](CC(N)=O)C(=O)N[C@@H](CO)C(=O)N[C@@H](Cc1ccc(O)cc1)C(=O)N[C@@H](CCCN=C(N)N)C(=O)N[C@@H](CCCCN)C(=O)N[C@H](C(=O)N[C@@H](CC(C)C)C(=O)NCC(=O)N[C@@H](CCC(N)=O)C(=O)N[C@@H](CC(C)C)C(=O)N[C@@H](CO)C(=O)N[C@@H](C)C(=O)N[C@@H](CCCN=C(N)N)C(=O)N[C@@H](CCCCN)C(=O)N[C@@H](CC(C)C)C(=O)N[C@@H](CC(C)C)C(=O)N[C@@H](CCC(N)=O)C(=O)N[C@@H](CC(=O)O)C(=O)N[C@H](C(=O)N[C@@H](CCSC)C(=O)N[C@@H](C)C(=O)N[C@@H](CCCN=C(N)N)C(N)=O)[C@@H](C)CC)C(C)C)[C@@H](C)O (stereo in doubt; 27) | 1.9

Further lines, results first:

Row | Relative potency | Compound
14 | 5.8 | CCCC[C@H](NC(=O)[C@@H](NC(=O)[C@H](CC(=O)O)NC(=O)[C@H](CCC(N)=O)NC(=O)[C@H](CC(C)C)NC(=O)[C@H](CC(C)C)NC(=O)[C@H](CCCCN)NC(=O)[C@H](CCCN=C(N)N)NC(=O)[C@H](C)NC(=O)[C@H](CO)NC(=O)[C@H](CC(C)C)NC(=O)[C@H](CCC(N)=O)NC(=O)[C@H](C)NC(=O)[C@H](CC(C)C)NC(=O)[C@@H](NC(=O)[C@H](CCCCN)NC(=O)[C@H](CCCN=C(N)N)NC(=O)[C@H](Cc1ccc(O)cc1)NC(=O)[C@H](CO)NC(=O)[C@H](CC(N)=O)NC(=O)[C@@H](NC(=O)[C@H](Cc1ccccc1)NC(=O)[C@@H](NC(=O)[C@H](C)NC(=O)[C@H](CC(=O)O)NC(=O)[C@H](C)NC(=O)[C@@](C)(N)Cc1ccc(O)cc1)[C@@H](C)CC)[C@@H](C)O)C(C)C)[C@@H](C)CC)C(=O)N[C@@H](CO)C(=O)N[C@@H](CCCN=C(N)N)C(N)=O (H-[αMeY]ADAIFTNSYRKVLAQLSARKLLQDI[Nle]SR-NH2)
15 | 1.3 | H-YADAIFTNSYRKVLGQLSARKLLQAIMSR-NH2
16 | 2.8 | CC[C@H](C)[C@H](NC(=O)[C@H](C)NC(=O)[C@H](CC(=O)O)NC(=O)[C@H](C)NC(=O)[C@@H](N)Cc1ccc(O)cc1)C(=O)N[C@@H](Cc1ccccc1)C(=O)N[C@H](C(=O)N[C@@H](CC(N)=O)C(=O)N[C@@H](CO)C(=O)N[C@@H](Cc1ccc(O)cc1)C(=O)N[C@@H](CCCN=C(N)N)C(=O)N[C@@H](CCCCN)C(=O)N[C@H](C(=O)N[C@@H](CC(C)C)C(=O)NCC(=O)N[C@H]1CCC(=O)NCCCC[C@H](C(=O)N[C@@H](CCCN=C(N)N)C(=O)N[C@@H](CCCCN)C(=O)N[C@@H](CC(C)C)C(=O)N[C@@H](CC(C)C)C(=O)N[C@@H](CCC(N)=O)C(=O)N[C@@H](CC(=O)O)C(=O)N[C@H](C(=O)N[C@@H](CCSC)C(=O)N[C@@H](CO)C(=O)N[C@@H](CCCN=C(N)N)C(N)=O)[C@@H](C)CC)NC(=O)[C@@H](CO)NC(=O)[C@H](CC(C)C)NC1=O)C(C)C)[C@@H](C)O
17 | 1.1 | CCCC[C@H]1NC(=O)[C@H]([C@@H](C)CC)NC(=O)[C@@H](NC(=O)[C@H](Cc2c[nH]cn2)NC(=O)[C@H](CC(C)C)NC(=O)[C@H](CC(C)C)NC(=O)[C@H](CCCCN)NC(=O)[C@H](CCCN=C(N)N)NC(=O)[C@H](Cc2ccccc2)NC(=O)[C@@H](NC(=O)[C@H](CC(C)C)NC(=O)[C@H](CCC(N)=O)NC(=O)[C@H](C)NC(=O)[C@H](CC(C)C)NC(=O)[C@@H](NC(=O)[C@H](CCCN=C(N)N)NC(=O)[C@H](CCCN=C(N)N)NC(=O)[C@H](Cc2ccc(O)cc2)NC(=O)[C@H](CO)NC(=O)[C@H](CO)NC(=O)[C@@H](NC(=O)[C@H](Cc2ccccc2)NC(=O)[C@@H](NC(=O)[C@H](C)NC(=O)[C@H](CC(=O)O)NC(=O)[C@H](C)NC(=O)[C@@](C)(N)Cc2c[nH]cn2)[C@@H](C)CC)[C@@H](C)O)[C@@H](C)CC)[C@@H](C)CC)CSSC[C@@H](C(N)=O)NC(=O)[C@H](CC(N)=O)NC1=O
18 | 0.01 | H-YADAIFTNSYRKVAGQLSARKLLQDIMSR-NH2
19 | 0.008 | CC[C@@H](C)[C@@H](NC(=O)[C@@H](C)NC(=O)[C@@H](CC(=O)O)NC(=O)[C@@H](C)NC(=O)[C@H](N)Cc1ccc(O)cc1)C(=O)N[C@H](Cc1ccccc1)C(=O)N[C@@H]1CCC(=O)NCCCC[C@@H](C(=O)N[C@@H](CCCN=C(N)N)C(=O)N[C@@H](CCCCN)C(=O)N[C@H](C(=O)N[C@@H](CC(C)C)C(=O)NCC(=O)N[C@@H](CCC(N)=O)C(=O)N[C@@H](CC(C)C)C(=O)N[C@@H](CO)C(=O)N[C@@H](C)C(=O)N[C@@H](CCCN=C(N)N)C(=O)N[C@@H](CCCCN)C(=O)N[C@@H](CC(C)C)C(=O)N[C@@H](CC(C)C)C(=O)N[C@@H](CCC(N)=O)C(=O)N[C@@H](CC(=O)O)C(=O)N[C@H](C(=O)N[C@@H](CCSC)C(=O)N[C@@H](CO)C(=O)N[C@@H](CCCN=C(N)N)C(N)=O)[C@@H](C)CC)C(C)C)NC(=O)[C@H](CO)NC(=O)[C@@H](CC(N)=O)NC1=O

From ChEMBL document CHEMBL1131484, “Human growth hormone-releasing hormone hGHRH(1-29)-NH2: systematic structure-activity relationship studies” (J Med Chem, 1998)
